Holding throughout (type): cell-based
Assay [1] deals with NS-1 mouse myeloma ATCC TIB-18. Briefly: Antitumour resazurin assay, NS-1 mouse myeloma cells. As to conditions: 96 h; for IC50: Mus musculus, read-out: IC50 ± 95% confidence interval, NS-1; for MIC, NS-1: NS-1 mouse myeloma ATCC TIB-18. On the procedure: (§1) To ascertain the bioactivity of all compounds the inhibitory concentrations of 1–6 were measured against bacteria (Bacillus subtilis ATCC 6633 and Staphylococcus aureus ATCC 25923), yeasts (Candida albicans ATCC 10231 and Saccharomyces cerevisiae ATCC 9763), a protozoan (Tritrichomonas foetus), and mammalian cell lines (NS-1 mouse myeloma ATCC TIB-18 and NFF human neonatal foreskin fibroblast cells ATCC PCS-201). […] Given this selectivity, the IC50 values for each compound 1–5versus NS-1, NFF and DU145 human prostate cancer cell ATCC HTB-81 were ascertained by a resazurin-based assay (Table 2). […]
(§2) 1.7. Assays for Biological Activity
(§3) Purified metabolites (1 – 6) were dissolved in DMSO to provide stock solutions (1,000 µg/mL or 40 µg/mL). Bioassays were carried out in 96-well microtitre plates containing two-fold serial dilutions to yield ranges of 10 to 0.005 µg mL-1 or 0.4 to 0.0002 µg mL-1, in 1% DMSO. […]
(§4) To assay antitumour activity, NS -1 ATCC TIB-18 mouse myeloma , DU145 prostate cancer cells (ATCC HTB-81), and NFF (ATCC PCS -201) human neonatal foreskin fibroblast cells were each inoculated in 96 -well microtitre plates (190 µL) at 50,000 cells mL-1 in DMEM (Dulbecco's Modified Eagle Medium + 10% v/v fetal bovine serum (FBS) + 1% v/v penicillin/streptomycin (10,000U mL-1/ 10,000 µg mL-1, Life Technologies Cat. No. 15140122), together with resazurin (250 µg/mL; 10 µL) and incubated at 37 °C (5% CO2). The plates were incubated for 96 h. Absorbance was measured using a Spectromax plate reader (Molecular Devices) at 605 nm for % inhibition, and IC50 values determined.

Assay [2] relates to NFF human neonatal foreskin fibroblast cells ATCC PCS-201. Description: Resazurin assay, NFF human neonatal foreskin fibroblast cells. As to conditions: for IC50: Homo sapiens, Fibroblast, read-out: IC50 ± 95% confidence interval, NFF; for IC50 / MIC, NFF: 96 h; for MIC, NFF: NFF human neonatal foreskin fibroblast ATCC PCS-201. Here is the method:
as §1, §2, §3, §4

Assay [3] has as its system DU145 human prostate cancer cell ATCC HTB-81. Briefly: Antitumour resazurin assay, DU145 prostate cancer cells. Particulars: DU-145, 96 h, read-out: IC50 ± 95% confidence interval, DU145. Here is the method: as §1, §2, §3, §4
Assay [4] has as its system Bacillus subtilis ATCC 6633. Briefly: Antibacterial assay, B. subtilis. Particulars: ATCC6633, 28 °C, 48 h, read visually. On the procedure: as §1, §2
(§5) Purified metabolites (1 – 6) were dissolved in DMSO to provide stock solutions (1,000 µg/mL or 40 µg/mL). Bioassays were carried out in 96-well microtitre plates containing two-fold serial dilutions to yield ranges of 10 to 0.005 µg mL-1 or 0.4 to 0.0002 µg mL-1, in 1% DMSO. Wells containing no test compound as a reference for no inhibition, and uninoculated wells were used as a reference for complete […]
(§6) Antibacterial assays were carried out using Bacillus subtilis ATCC 6633 and Staphylococcus aureus ATCC 25923 as indicative species for Gram-positive activity. A bacterial suspension (50 mL in 250 mL flask) was prepared in nutrient broth media (5.0 g L-1 bacteriological peptone (Bacto), 5.0 g L-1 NaCl (Chem-supply), 2.0 g L-1 yeast extract (Bacto), 1.0 g L-1 beef extract (Bacto)) by cultivation for 24 h at 250 rpm, 28 °C. The suspension was diluted to an absorbance of 0.01 absorbance units per mL [OD400 nm] and aliquots (10 µL) were added to the wells of a 96 -well microtitre plate containing the test compounds dispersed in nutrient broth with resazurin (12.5 µg mL-1). The plates were incubated at 28 °C for 48 h, during which time the positive control wells change colour from a blue to light pink colour. MICs were determined visually. […]

For assay [5], the system named is Staphylococcus aureus ATCC 25923. Briefly: Antibacterial assay, S. aureus. Particulars: ATCC25923, 28 °C, 48 h, read visually. On the procedure: as §1, §2, §5, §6
In assay [6] the test system is Candida albicans ATCC 10231. Briefly: Antifungal assay, C. albicans. As to conditions: ATCC10231, 24 °C, 48 h, read visually. On the procedure:
as §1, §2, §3
(§7) Antifungal assays were carried out using Candida albicans ATCC 10231 and Saccharomyces cerevisiae ATCC 9763 as indicative species for antifungal activity. A yeast suspension (50 mL in 250 mL flask) was prepared in malt extract broth (1.0 g L-1 bacteriological peptone (Bacto), 20.0 g L-1 malt extract […]
(§8) (Bacto), 20 g L-1 glucose (Country Brewers)) by cultivation for 24 h at 250 rpm, 24 °C. The suspension was diluted to an absorbance of 0.005 and 0.03 absorbance units [ OD400] per mL for C. albicans and S. cerevisiae, respectively. Aliquots (20 µL and 30 µL) of C. albicans and S. cerevisiae, respectively were applied to the wells of a 96-well microtitre plate, which contained the test compounds dispersed in malt extract broth containing bromocresol green (50 µg mL-1). The plates were incubated at 24 °C for 48 h during which time the positive control wells change colour from a blue to yellow colour. MIC end points were determined visually. […]
(§9) To assay antitumour activity, NS -1 ATCC TIB-18 mouse myeloma , DU145 prostate cancer cells (ATCC HTB-81), and NFF (ATCC PCS -201) human neonatal foreskin fibroblast cells were each

The test system of assay [7] is Saccharomyces cerevisiae ATCC 9763. Description: Antifungal assay, S. cerevisiae. Particulars: ATCC9763, 24 °C, 48 h, read visually. On the procedure:
as §1, §2, §3, §7, §8, §9

The test system of assay [8] is mammalian cell lines. Description: Inhibitory activity against mammalian cell lines (summary across NS-1, DU145, NFF). Here is the method:
To ascertain the bioactivity of all compounds the inhibitory concentrations of 1–6 were measured against bacteria (Bacillus subtilis ATCC 6633 and Staphylococcus aureus ATCC 25923), yeasts (Candida albicans ATCC 10231 and Saccharomyces cerevisiae ATCC 9763), a protozoan (Tritrichomonas foetus), and mammalian cell lines (NS-1 mouse myeloma ATCC TIB-18 and NFF human neonatal foreskin fibroblast cells ATCC PCS-201). […] Given this selectivity, the IC50 values for each compound 1–5versus NS-1, NFF and DU145 human prostate cancer cell ATCC HTB-81 were ascertained by a resazurin-based assay (Table 2).
as §8
Cat. No. 15140122), 10% v/v new born calf serum (NBCS), Life Technologies). […] T. foetus proliferation was measured at 72 h . […]

In brackets after ≈: the same amount, converted by molar mass.

With `CC[C@H](O)[C@@H](C)[C@H]1O[C@@H]1C[C@H](C)/C=C/C=C(\C)[C@H]1OC(=O)C[C@H](O)CC[C@H](C)[C@@H](OC(C)=O)/C=C/[C@@H]1C` [Compound 2, 6-deoxypladienolide B], the 50% inhibitory concentration (IC50) in assay [1] is 40.3 ± 3.7 nM; in assay [2], 27 ± 14 nM; in assay [3], 9.6 ± 5.8 nM. In addition, the “MIC, NS-1” value in assay [1] is 0.001 µg/mL (≈ 0.00192 µM). Besides, the “MIC, NFF” value in assay [2] was 0.04 µg/mL (≈ 0.0768 µM). Further, the MIC in assay [4] is greater than 10 µg/mL; in assay [5], greater than 10 µg/mL; in assay [6] it was greater than 20 µg/mL; in assay [7], greater than 20 µg/mL. In addition, in assay [8] (depending on the cell line), the “Fold less effective than 1” value is reported as no more than 8 fold.
Consider `CC[C@H](O)[C@@H](C)/C=C/C[C@H](C)/C=C/C=C(\C)[C@H]1OC(=O)C[C@H](O)CC[C@@](C)(O)[C@@H](OC(C)=O)/C=C/[C@@H]1C` [Compound 3, Δ18,19-pladienolide B], for which the values for the IC50 in assay [1], in assay [2] and in assay [3] were greater than 770 nM, 319 ± 61 nM and 96 ± 27 nM, respectively. The “MIC, NS-1” value in assay [1] is 0.05 µg/mL (≈ 0.096 µM). For the same molecule, the “MIC, NFF” value in assay [2] is 0.6 µg/mL (≈ 1.15 µM). In addition, the minimum inhibitory concentration (MIC) in assay [4] was greater than 10 µg/mL; in assay [5] it was greater than 10 µg/mL; in assay [6], greater than 20 µg/mL; in assay [7], greater than 20 µg/mL. The “IC50 values, times greater than those of 1” value in assay [8] (across cell lines) is “up to twenty-five”.
Turning to `CC[C@H](O)[C@@H](C)/C=C/C[C@H](C)/C=C/C=C(\C)[C@H]1OC(=O)C[C@H](O)CC[C@H](C)[C@@H](OC(C)=O)/C=C/[C@@H]1C` [Compound 4, Δ18,19-6-deoxypladienolide B], the IC50 in assay [1] is greater than 790 nM; in assay [2], greater than 790 nM; in assay [3] it was 264 ± 79 nM. Moreover, in assay [1], the “MIC, NS-1” value was 0.1 µg/mL (≈ 0.198 µM). In assay [2], the “MIC, NFF” value came to 0.4 µg/mL (≈ 0.793 µM). Further, the MIC in assay [4] is greater than 10 µg/mL; in assay [5], greater than 10 µg/mL; in assay [6] it was greater than 20 µg/mL; in assay [7], greater than 20 µg/mL.
As for `CC[C@H](O)[C@@H](C)[C@H]1O[C@@H]1C[C@H](C)/C=C/C=C(\C)[C@H]1OC(=O)C[C@H](O)CC[C@@](C)(O)[C@@H](OC(C)=O)/C=C/[C@@H]1C` [Compound 1, pladienolide B], the IC50 turned out to be 5.6 ± 0.6 nM in assay [1], 13 ± 4.1 nM in assay [2] and 7.5 ± 3.5 nM in assay [3]. Moreover, the “MIC, NS-1” value in assay [1] is 0.001 µg/mL (≈ 0.00186 µM). Besides, the “MIC, NFF” value in assay [2] worked out at 0.013 µg/mL (≈ 0.0242 µM). Also, the MIC in assay [4] is greater than 10 µg/mL; in assay [5] it was greater than 10 µg/mL; in assay [6] it was greater than 20 µg/mL; in assay [7], greater than 20 µg/mL.
`CC[C@H](O)[C@@H](C)/C=C/C[C@H](C)/C=C/C=C(\C)[C@H]1OC(=O)C[C@H](O)CC[C@H](C)[C@@H](O)/C=C/[C@@H]1C` [Compound 5, Δ18,19-6-deoxy-7-desacetylpladienolide B]: in assay [1], the “MIC, NS-1” value came to 0.63 µg/mL (≈ 1.36 µM). In assay [2], the IC50 stood at 8100 ± 1800 nM. Moreover, in assay [2] (NFF), the “Activity, times lower than 1 against NFF” value is on record as greater than 600 times. The “MIC, NFF” value in assay [2] is 10 µg/mL (≈ 21.6 µM). The MIC in assay [4] was greater than 10 µg/mL; in assay [5], greater than 10 µg/mL; in assay [6] it was greater than 20 µg/mL; in assay [7], greater than 20 µg/mL.
Consider `CC[C@@H]1O[C@@H](C[C@H](C)/C=C/C=C(\C)[C@H]2OC(=O)C[C@H](O)CC[C@@](C)(O)[C@@H](OC(C)=O)/C=C/[C@@H]2C)[C@H](O)[C@@H]1C` [Compound 6, isopladienolide B], for which the “MIC, NS-1” value in assay [1] is 0.08 µg/mL (≈ 0.149 µM). The “MIC, NFF” value in assay [2] is 1.25 µg/mL (≈ 2.33 µM). Further, the minimum inhibitory concentration (MIC) is greater than 10 µg/mL in assay [4], greater than 10 µg/mL in assay [5], greater than 20 µg/mL in assay [6] and greater than 20 µg/mL in assay [7].

The record behind these values is article PMC8163091, “Production of novel pladienolide analogues through native expression of a pathway-specific activator” (Chemical Science, 2020).
